# Reference: publication PMC11062922 (Nature Chemical Biology, 2023)
# Several values for one entry are separate records, joined by “and”; a condition that tells them apart may be missing. Equal entries are not always repeated. Where two headings read alike, the source gives them in different places.
# Columns and labels:
# [1] = molecular target: T1, ERN1 (Homo sapiens, UniProt O75460); assay: Kinobeads two-dose competition binding: ERN1; conditions: read-out: Lestaurtinib Drugmatrix value, Gene Name ERN1
# T1 construct: endogenous in cells
# [2] = molecular target: T2, PRKAG2 (Homo sapiens, UniProt Q9UGJ0); assay: Kinobeads competition binding, Lestaurtinib control replicates: PRKAG2; conditions: read-out: Lestaurtinib Drugmatrix value, PRKAG2; Gene Name PRKAG2; one column per experiment number and replicate (R1-R3)
# T2 construct: endogenous in cells
# [3] = molecular target: T3, BUB1 (Homo sapiens, UniProt O43683); assay: Kinobeads two-dose competition binding: BUB1; conditions: read-out: Lestaurtinib Drugmatrix value, Gene Name BUB1
# T3 construct: endogenous in cells
# [4] = molecular target: T4, PAK6 (Homo sapiens, UniProt Q9NQU5); assay: Kinobeads competition binding, Lestaurtinib control replicates: PAK6; conditions: read-out: Lestaurtinib Drugmatrix value; Gene Name PAK6; one column per experiment number and replicate (R1-R3)
# T4 construct: a mixture of lysates from five cancer cell lines; endogenous in cells
# [5] = molecular target: T5, FRK (Homo sapiens, UniProt P42685); assay: Kinobeads two-dose competition binding: FRK; conditions: read-out: Lestaurtinib Drugmatrix value, Gene Name FRK; target FRK; each column = one Lestaurtinib control replicate (batch_R1-R3)
# T5 construct: endogenous in cells
# [6] = molecular target: T6, CK2alpha2 (CSNK2A2) (Homo sapiens, UniProt P19784); assay: Recombinant kinase activity assay (ProQinase, FlashPlate radiometric): CK2alpha2; assay type: biochemical
# T6 construct: purchased ProQinase
# Description: Kinase activity assays were performed by ProQinase. Dose-dependent activity inhibition of CDK1/cyclinB, CK2alpha1 and CK2alpha2 were measured using a FlashPlateTM-based radiometric assay at KM (ATP) of the respective kinase.
# [7] = molecular target: T7, RIPK3 (Homo sapiens, UniProt Q9Y572); assay: Kinobeads full dose-response competition binding: RIPK3; conditions: Gene Name RIPK3
# T7 construct: endogenous in cells
# [8] = molecular target: T8, CSNK1E (Homo sapiens, UniProt P49674); assay: Kinobeads full dose-response competition binding: CSNK1E; conditions: Gene Name CSNK1E
# T8 construct: endogenous in cells
# [9] = molecular target: T9, CSNK1D (Homo sapiens, UniProt P48730); assay: Kinobeads full dose-response competition binding: CSNK1D; conditions: Gene Name CSNK1D
# T9 construct: endogenous in cells
# [10] = tested on: ERBB2; conditions: ERBB2 (2nd target, 2nd value); ref chemicalprobes.org; cited from earlier work
# [11] = EC50 with Correction, doses in nM, read-out: apparent Kd
# [12] = eight-dose curve fit, doses in nM
# T8 sequence (P49674 whole entry): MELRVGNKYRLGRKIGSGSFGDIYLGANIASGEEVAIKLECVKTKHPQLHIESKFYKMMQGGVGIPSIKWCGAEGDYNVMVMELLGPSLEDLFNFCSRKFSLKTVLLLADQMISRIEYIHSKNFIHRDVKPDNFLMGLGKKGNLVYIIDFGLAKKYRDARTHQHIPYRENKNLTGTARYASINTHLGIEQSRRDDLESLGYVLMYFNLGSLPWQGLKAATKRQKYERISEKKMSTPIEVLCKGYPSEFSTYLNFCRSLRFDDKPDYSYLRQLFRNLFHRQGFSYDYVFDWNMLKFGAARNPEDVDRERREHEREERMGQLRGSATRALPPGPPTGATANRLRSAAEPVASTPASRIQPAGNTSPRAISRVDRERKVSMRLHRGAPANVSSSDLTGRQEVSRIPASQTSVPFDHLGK
# T2 sequence (Q9UGJ0 whole entry): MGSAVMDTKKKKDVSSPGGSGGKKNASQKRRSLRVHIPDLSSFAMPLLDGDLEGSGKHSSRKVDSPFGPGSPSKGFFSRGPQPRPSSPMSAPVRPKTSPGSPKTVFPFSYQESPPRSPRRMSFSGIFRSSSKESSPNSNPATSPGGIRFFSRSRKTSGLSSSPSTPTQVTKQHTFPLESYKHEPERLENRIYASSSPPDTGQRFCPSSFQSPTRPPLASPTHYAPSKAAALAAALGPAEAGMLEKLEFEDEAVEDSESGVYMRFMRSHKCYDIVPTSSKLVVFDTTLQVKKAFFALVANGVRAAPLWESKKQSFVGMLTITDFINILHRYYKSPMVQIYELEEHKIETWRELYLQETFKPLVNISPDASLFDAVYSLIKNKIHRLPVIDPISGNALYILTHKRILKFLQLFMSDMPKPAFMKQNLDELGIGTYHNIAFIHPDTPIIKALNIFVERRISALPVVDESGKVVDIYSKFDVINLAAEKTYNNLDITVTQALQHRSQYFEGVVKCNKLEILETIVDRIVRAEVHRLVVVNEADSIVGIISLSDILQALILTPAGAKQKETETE
# T2 sequence (Q13131 whole entry partner): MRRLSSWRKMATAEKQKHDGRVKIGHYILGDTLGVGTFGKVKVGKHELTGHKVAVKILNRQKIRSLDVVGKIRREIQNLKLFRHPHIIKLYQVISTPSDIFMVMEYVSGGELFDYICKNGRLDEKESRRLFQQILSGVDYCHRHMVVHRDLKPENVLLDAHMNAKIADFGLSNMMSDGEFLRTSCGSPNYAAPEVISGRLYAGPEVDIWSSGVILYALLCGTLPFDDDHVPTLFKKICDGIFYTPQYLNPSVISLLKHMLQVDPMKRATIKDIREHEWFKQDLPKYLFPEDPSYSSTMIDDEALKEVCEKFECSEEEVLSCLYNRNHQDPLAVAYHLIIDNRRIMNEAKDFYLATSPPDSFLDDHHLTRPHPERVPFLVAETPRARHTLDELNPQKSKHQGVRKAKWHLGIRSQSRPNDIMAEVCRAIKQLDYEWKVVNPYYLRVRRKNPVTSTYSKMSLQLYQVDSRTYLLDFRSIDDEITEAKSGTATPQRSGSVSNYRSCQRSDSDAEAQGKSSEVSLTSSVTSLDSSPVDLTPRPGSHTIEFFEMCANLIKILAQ
# T2 sequence (Q9Y478 2-270 partner limits assumed): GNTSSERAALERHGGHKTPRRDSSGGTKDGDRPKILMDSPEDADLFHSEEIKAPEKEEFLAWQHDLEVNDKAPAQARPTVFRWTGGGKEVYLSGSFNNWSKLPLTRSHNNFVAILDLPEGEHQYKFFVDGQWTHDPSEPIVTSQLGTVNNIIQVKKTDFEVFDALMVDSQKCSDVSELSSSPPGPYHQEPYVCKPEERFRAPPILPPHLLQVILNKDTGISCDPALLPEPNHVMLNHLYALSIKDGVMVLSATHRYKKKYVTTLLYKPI
# T7 sequence (Q9Y572 whole entry): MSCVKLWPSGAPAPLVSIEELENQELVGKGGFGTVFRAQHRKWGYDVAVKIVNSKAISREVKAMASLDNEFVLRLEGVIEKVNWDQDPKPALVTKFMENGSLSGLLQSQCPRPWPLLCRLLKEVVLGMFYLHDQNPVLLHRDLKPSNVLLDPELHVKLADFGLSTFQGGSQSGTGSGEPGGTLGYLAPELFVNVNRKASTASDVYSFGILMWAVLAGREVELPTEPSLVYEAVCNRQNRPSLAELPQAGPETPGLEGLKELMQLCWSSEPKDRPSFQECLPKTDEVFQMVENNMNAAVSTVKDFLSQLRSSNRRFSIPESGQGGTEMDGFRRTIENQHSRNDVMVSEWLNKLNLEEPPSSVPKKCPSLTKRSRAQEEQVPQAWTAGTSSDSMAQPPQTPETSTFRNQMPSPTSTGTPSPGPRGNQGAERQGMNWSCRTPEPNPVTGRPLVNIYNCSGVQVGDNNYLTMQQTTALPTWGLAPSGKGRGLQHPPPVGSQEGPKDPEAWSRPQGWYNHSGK
# T9 sequence (P48730 whole entry): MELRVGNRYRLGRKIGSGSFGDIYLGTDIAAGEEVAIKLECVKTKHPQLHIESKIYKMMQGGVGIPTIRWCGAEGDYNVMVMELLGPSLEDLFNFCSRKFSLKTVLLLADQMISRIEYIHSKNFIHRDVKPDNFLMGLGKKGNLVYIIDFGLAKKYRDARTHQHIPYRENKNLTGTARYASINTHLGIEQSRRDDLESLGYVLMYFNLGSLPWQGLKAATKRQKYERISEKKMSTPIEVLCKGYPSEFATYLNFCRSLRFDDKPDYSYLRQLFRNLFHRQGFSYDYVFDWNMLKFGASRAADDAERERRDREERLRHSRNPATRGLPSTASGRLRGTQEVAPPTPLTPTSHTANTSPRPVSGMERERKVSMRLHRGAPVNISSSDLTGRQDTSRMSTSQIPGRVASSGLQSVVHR
# T6 sequence (P19784 whole entry): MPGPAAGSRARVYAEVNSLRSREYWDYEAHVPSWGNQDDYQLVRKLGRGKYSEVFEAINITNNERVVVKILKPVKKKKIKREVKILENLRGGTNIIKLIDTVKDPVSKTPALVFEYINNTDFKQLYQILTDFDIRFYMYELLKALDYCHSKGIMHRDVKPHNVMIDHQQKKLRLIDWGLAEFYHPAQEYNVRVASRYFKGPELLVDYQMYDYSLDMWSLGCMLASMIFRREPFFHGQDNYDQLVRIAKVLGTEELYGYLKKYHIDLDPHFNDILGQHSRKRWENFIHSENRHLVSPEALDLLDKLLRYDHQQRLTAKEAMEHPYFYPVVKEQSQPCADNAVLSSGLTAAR
# T3 sequence (O43683 whole entry): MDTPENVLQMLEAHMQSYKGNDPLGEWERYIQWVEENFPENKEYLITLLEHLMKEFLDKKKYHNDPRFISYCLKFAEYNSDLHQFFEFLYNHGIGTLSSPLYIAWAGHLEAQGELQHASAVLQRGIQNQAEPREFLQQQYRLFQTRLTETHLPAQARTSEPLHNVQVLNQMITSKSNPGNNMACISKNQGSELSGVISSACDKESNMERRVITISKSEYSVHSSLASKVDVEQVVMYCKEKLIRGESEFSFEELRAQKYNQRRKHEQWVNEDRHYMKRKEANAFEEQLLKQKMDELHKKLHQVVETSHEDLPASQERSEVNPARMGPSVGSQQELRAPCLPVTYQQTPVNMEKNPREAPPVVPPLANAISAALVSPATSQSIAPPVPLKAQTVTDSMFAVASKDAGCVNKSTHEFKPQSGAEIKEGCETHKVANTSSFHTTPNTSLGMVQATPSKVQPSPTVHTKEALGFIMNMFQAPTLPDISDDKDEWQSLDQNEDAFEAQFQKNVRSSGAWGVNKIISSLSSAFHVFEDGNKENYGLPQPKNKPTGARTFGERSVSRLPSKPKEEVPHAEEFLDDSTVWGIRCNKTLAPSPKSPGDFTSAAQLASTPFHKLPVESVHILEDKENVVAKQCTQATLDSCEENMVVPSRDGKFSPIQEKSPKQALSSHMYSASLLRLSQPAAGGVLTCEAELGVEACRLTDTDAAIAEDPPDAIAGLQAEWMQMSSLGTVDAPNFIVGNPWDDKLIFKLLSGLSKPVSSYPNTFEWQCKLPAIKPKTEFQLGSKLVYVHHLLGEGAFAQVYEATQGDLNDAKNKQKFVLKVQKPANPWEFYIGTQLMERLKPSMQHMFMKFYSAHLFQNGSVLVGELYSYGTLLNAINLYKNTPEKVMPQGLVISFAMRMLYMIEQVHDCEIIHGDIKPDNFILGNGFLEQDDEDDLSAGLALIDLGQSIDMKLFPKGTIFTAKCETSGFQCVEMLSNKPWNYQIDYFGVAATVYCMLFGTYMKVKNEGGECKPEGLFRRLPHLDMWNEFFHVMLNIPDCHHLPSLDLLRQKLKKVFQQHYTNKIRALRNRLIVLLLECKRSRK
# T4 sequence (Q9NQU5 whole entry): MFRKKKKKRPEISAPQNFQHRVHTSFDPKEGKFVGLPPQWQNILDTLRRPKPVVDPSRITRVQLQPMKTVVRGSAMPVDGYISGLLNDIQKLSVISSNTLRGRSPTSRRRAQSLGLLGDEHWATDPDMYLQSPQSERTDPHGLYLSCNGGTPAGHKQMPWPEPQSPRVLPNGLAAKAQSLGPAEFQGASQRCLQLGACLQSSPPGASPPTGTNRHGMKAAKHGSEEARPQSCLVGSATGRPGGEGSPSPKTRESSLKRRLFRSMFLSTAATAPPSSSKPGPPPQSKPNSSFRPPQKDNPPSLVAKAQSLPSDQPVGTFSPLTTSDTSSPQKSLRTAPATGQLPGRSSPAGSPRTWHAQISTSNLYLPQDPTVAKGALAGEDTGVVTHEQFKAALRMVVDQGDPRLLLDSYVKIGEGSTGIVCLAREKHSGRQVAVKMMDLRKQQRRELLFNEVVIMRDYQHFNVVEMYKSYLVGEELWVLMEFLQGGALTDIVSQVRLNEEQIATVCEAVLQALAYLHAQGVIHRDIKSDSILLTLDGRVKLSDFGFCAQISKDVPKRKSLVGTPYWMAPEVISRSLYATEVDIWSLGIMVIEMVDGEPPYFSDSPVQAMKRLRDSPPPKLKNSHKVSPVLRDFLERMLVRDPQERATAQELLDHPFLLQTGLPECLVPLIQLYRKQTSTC
compound,measurement,setting,value
C[C@]12O[C@H](C[C@]1(O)CO)n1c3ccccc3c3c4c(c5c6ccccc6n2c5c31)CNC4=O [Lestaurtinib],potency estimated from few doses,[1],176 nM
same,potency estimated from few doses,[2],888 nM (2×) and 629 nM and 352 nM and 850 nM and 720 nM
same,potency estimated from few doses,[3],854 nM
same,potency estimated from few doses,[4],151 nM
same,potency estimated from few doses,[5],751 nM
COc1cc(Nc2ncc3c(C)nc(-c4cc5ccccc5[nH]4)n3n2)cc(OC)c1OC [GW869516X],IC50,"[6]; Enzyme CK2alpha2, Highest Assay Concentration 1.00E-06 M, read-out: IC50",33.7 nM
same,IC50,"[6]; recombinant kinase activity assay at KM (ATP), read-out: Activity IC50 CSNK2A2",34 nM
NCc1ccc(-c2nc(-c3ccncc3)c(-c3ccc(Cl)c(O)c3)[nH]2)cc1 [SB-476429-A],Relative Intensity 0.3nM,"[7]; 0.3nM compound, DMSO = 1",1.0435
same,Relative Intensity 1nM,"[7]; 1nM compound, DMSO = 1",1.078
same,Relative Intensity 3nM,"[7]; 3nM compound, DMSO = 1",1.023
same,Relative Intensity 10nM,"[7]; 10nM compound, DMSO = 1",0.8405
same,Relative Intensity 30nM,"[7]; 30nM compound, DMSO = 1",0.9631
same,Relative Intensity 100nM,"[7]; 100nM compound, DMSO = 1",1.023
same,Relative Intensity 300nM,"[7]; 300nM compound, DMSO = 1",0.7216
same,Relative Intensity 1000nM,"[7]; 1000nM compound, DMSO = 1",0.4701
same,Kd,[7]; [11],289 nM
same,EC50,[7]; [12],296 nM
same,Relative Intensity 0.3nM,"[8]; 0.3nM compound, DMSO = 1",1.09
same,Relative Intensity 1nM,"[8]; 1nM compound, DMSO = 1",1.082
same,Relative Intensity 3nM,"[8]; 3nM compound, DMSO = 1",1.034
same,Relative Intensity 10nM,"[8]; 10nM compound, DMSO = 1",1.047
same,Relative Intensity 30nM,"[8]; 30nM compound, DMSO = 1",0.8419
same,Relative Intensity 100nM,"[8]; 100nM compound, DMSO = 1",0.9482
same,Relative Intensity 300nM,"[8]; 300nM compound, DMSO = 1",0.7771
same,Relative Intensity 1000nM,"[8]; 1000nM compound, DMSO = 1",0.494
same,Kd,[8]; [11],642 nM
same,EC50,[8]; [12],642 nM
same,Relative Intensity 0.3nM,"[9]; 0.3nM compound, DMSO = 1",0.9053
same,Relative Intensity 1nM,"[9]; 1nM compound, DMSO = 1",1.1
same,Relative Intensity 3nM,"[9]; 3nM compound, DMSO = 1",1.076
same,Relative Intensity 10nM,"[9]; 10nM compound, DMSO = 1",1.106
same,Relative Intensity 30nM,"[9]; 30nM compound, DMSO = 1",0.9763
same,Relative Intensity 100nM,"[9]; 100nM compound, DMSO = 1",0.9322
same,Relative Intensity 300nM,"[9]; 300nM compound, DMSO = 1",0.7176
same,Relative Intensity 1000nM,"[9]; 1000nM compound, DMSO = 1",0.4933
same,Kd,[9]; [11],300 nM
same,EC50,[9]; [12],300 nM
CN(C)C/C=C/C(=O)Nc1cc2c(Nc3ccc(F)c(Cl)c3)ncnc2cc1O[C@H]1CCOC1 [Afatinib],Potency value,[10],"0.5 nM, 14 nM"
